{"source": "patent US20260263521A1", "about": "“ANTI-CD200R1 ANTIBODY AND USE THEREOF” (AIMED BIO INC., priority 2023, published 2026)", "system": "Th1/Th2 cytokines in nasal polyp patient specimens", "experiment": "Ex vivo cytokine inhibition in nasal polyp patient specimens (CBA)", "format": "cell-based, human", "details": "antibody drugs 100 nM; three DUPIXENT-resistant samples of 10; Th2 cytokines IL-5, IL-4", "method": "The specimens were finely chopped and minced, and then additionally processed twice using the m_lung_02 protocol on a gentleMACS (Miltenyi Biotec) to obtain tissue fragments. After centrifugation at 1500 rpm for 3 minutes to ensure that all tissues formed a pellet, RPMI media+10% FBS was aliquoted in the pellet at a 1:3 ratio. The pellet was thoroughly mixed with the medium and dispensed into a 96-well u-bottom plate, 100 μl per well, in triplicate for each drug. To establish the screening assay, results were obtained first using dexamethasone (a steroid-based positive control drug), followed by treatment with the anti-CD200R1 antibody (P001009v1) and other drugs used for the corresponding disease. All antibody-based drugs were treated at 100 nM, while steroid drugs such as dexamethasone were treated at 20 μM.\nAfter drug treatment, the cells were incubated at 37° C. for 1 hour. To increase overall cytokine levels, 4 μl of a 10-fold diluted cell stimulation cocktail 500× (Invitrogen #00-4970-03) was added on each well and mixed. After reaction for 24 hours at 37° C., the supernatant was collected by centrifugation. Using the human Th1/Th2 cytokine cytometric bead array (CBA) kit (BD, #550749), cytokine levels in the supernatant were measured and the degree of drug responsiveness of each sample was determined."}
{"substance": "DUPIXENT®: drug used as a conventional therapeutic agent for atopic dermatitis and allergic diseases [reference compound]", "values": [{"measurement": "cytokine suppression in nasal polyp patient samples", "value": "no suppression"}]}
